In patent US4521422A, “Aryl and heteroaryl[7-(aryl and heteroaryl)pyrazolo[1,5-a]pyrimidin-3-yl]methanones” (American Cyanamid Company, priority 1984, dated 1985):

Test system: Ability of Rats to Remain on an Inclined Screen
Assay: Effect on ability of rats to remain on an inclined screen
Type: in vivo
Conditions: Rattus norvegicus, 65 min; dose necessary to cause 50% of animals to fall off; oral; 60° screen, 65 min after dosing
Method: The first test measures the effect of representative compounds on the ability of rats to remain on an inclined screen. Groups of at least 6 rats were treated orally with graded doses of test compounds or vehicle and placed on a wire mesh screen (inclined at an angle of 60° from a horizontal level) 65 minutes later. The number of rats falling off the screen within 30 minutes was recorded. The ED50 (dose necessary to cause 50% of the animals tested to fall off) was calculated according to the linear arc-sine transformation method of Finney, D. J. Statistical Methods in Biological Assay, 2nd Ed., Hafner, N. Y., 1964, pp. 454 ff. Compounds were dissolved or suspended in a 2% aqueous starch suspension containing 5% polyethylene glycol 400 and a drop of polysorbate 80, and administered in a constant volume of 5 ml/kg.

Row | Structure (SMILES) | ED50 [mg/kg]
1 | O=C(c1ccco1)c1cnn2c(-c3cccnc3)ccnc12 [2-Furanyl[7-(3-pyridinyl)pyrazolo[1,5-a]pyrimidin-3-yl]methanone] | 167
2 | COc1ccc(C(=O)c2cnn3c(-c4cccnc4)ccnc23)cc1 [(4-Methoxyphenyl)[7-(3-pyridinyl)pyrazolo[1,5-a]pyrimidin-3-yl]methanone] | 11.9
3 | Cc1ccc(C(=O)c2cnn3c(-c4cccnc4)ccnc23)cc1 [(4-Methylphenyl)[7-(3-pyridinyl)pyrazolo[1,5-a]pyrimidin-3-yl]methanone] | 11.1
4 | O=C(c1ccccn1)c1cnn2c(-c3cccc(C(F)(F)F)c3)ccnc12 [2-pyridinyl[7-[3-(trifluoromethyl)phenyl]pyrazolo[1,5-a]pyrimidin-3-yl]methanone] | 6.9
5 | O=C(c1ccc(F)cc1)c1cnn2c(-c3ccncc3)ccnc12 [(4-Fluorophenyl)[7-(4-pyridinyl)pyrazolo[1,5-a]pyrimidin-3-yl]methanone] | 98
6 | O=C(c1ccccc1)c1cnn2c(-c3cccnc3)ccnc12 [Phenyl[7-(3-pyridinyl)pyrazolo[1,5-a]pyrimidin-3-yl]methanone] | 68.5
7 | O=C(c1ccccc1)c1cnn2c(-c3ccncc3)ccnc12 [phenyl[7-(4-pyridinyl)pyrazolo[1,5-a]pyrimidin-3-yl]methanone] | 9.9
8 | O=C(c1ccccc1)c1cnn2c(-c3cccc(C(F)(F)F)c3)ccnc12 [phenyl[7-[3-(trifluoromethyl)phenyl]pyrazolo[1,5-a]pyrimidin-3-yl]methanone] | 5.5

Test system: Clonic Seizures Caused by Pentylenetetrazole in Rats
Assay: Protection against clonic seizures caused by pentylenetetrazole in rats
Type: in vivo
Conditions: Rattus norvegicus; dose 12.5 mg/kg, oral or i.p.; pentylenetetrazole 23 mg/kg i.v.; read-out: % of Rats Protected
Procedure, shortened: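 Rats (at least 4 per group) given single or graded oral or intraperitoneal doses in starch/PEG/Polysorbate 80 vehicle. After 30 or 60 min, pentylenetetrazole 23 mg/kg i.v. was given, a dose expected to induce clonic seizures in 99% of unprotected rats. Protection from convulsions was scored.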

Row | Structure (SMILES) | responders at 12.5 mg/kg [%]
9 | O=C(c1ccc(F)cc1)c1cnn2c(-c3cccc(C(F)(F)F)c3)ccnc12 [(4-fluorophenyl)[7-[3-(trifluoromethyl)phenyl]pyrazolo[1,5-a]pyrimidin-3-yl]methanone] | 38

Same assay, conditions: Rattus norvegicus; dose 25.0 mg/kg, oral or i.p.; pentylenetetrazole 23 mg/kg i.v. at 30 or 60 min; read-out: % of Rats Protected

Row | Structure (SMILES) | responders at 25 mg/kg [%]
10 | O=C(c1ccco1)c1cnn2c(-c3cccnc3)ccnc12 [2-Furanyl[7-(3-pyridinyl)pyrazolo[1,5-a]pyrimidin-3-yl]methanone] | 100
11 | COc1ccc(C(=O)c2cnn3c(-c4cccnc4)ccnc23)cc1 [(4-Methoxyphenyl)[7-(3-pyridinyl)pyrazolo[1,5-a]pyrimidin-3-yl]methanone] | 100
12 | Cc1ccc(C(=O)c2cnn3c(-c4cccnc4)ccnc23)cc1 [(4-Methylphenyl)[7-(3-pyridinyl)pyrazolo[1,5-a]pyrimidin-3-yl]methanone] | 100
13 | O=C(c1ccco1)c1cnn2c(-c3cccc(C(F)(F)F)c3)ccnc12 [2-furanyl[7-[3-(trifluoromethyl)phenyl]pyrazolo[1,5-a]pyrimidin-3-yl]methanone] | 100
14 | O=C(c1ccccn1)c1cnn2c(-c3cccc(C(F)(F)F)c3)ccnc12 [2-pyridinyl[7-[3-(trifluoromethyl)phenyl]pyrazolo[1,5-a]pyrimidin-3-yl]methanone] | 100
15 | O=C(c1ccc(F)cc1)c1cnn2c(-c3ccncc3)ccnc12 [(4-Fluorophenyl)[7-(4-pyridinyl)pyrazolo[1,5-a]pyrimidin-3-yl]methanone] | 100
16 | O=C(c1ccccc1)c1cnn2c(-c3cccnc3)ccnc12 [Phenyl[7-(3-pyridinyl)pyrazolo[1,5-a]pyrimidin-3-yl]methanone] | 100
17 | O=C(c1ccccc1Cl)c1cnn2c(-c3cccnc3)ccnc12 [(2-chlorophenyl)[7-(3-pyridinyl)pyrazolo[1,5-a]pyrimidin-3-yl]methanone] | 100
18 | O=C(c1ccccn1)c1cnn2c(-c3ccncc3)ccnc12 [2-pyridinyl[7-(4-pyridinyl)pyrazolo[1,5-a]pyrimidin-3-yl]methanone] | 100
19 | O=C(c1ccccc1)c1cnn2c(-c3ccncc3)ccnc12 [phenyl[7-(4-pyridinyl)pyrazolo[1,5-a]pyrimidin-3-yl]methanone] | 100
20 | O=C(c1ccoc1)c1cnn2c(-c3cccnc3)ccnc12 [3-furanyl[7-(3-pyridinyl)pyrazolo[1,5-a]pyrimidin-3-yl]methanone] | 100
21 | O=C(c1ccccc1)c1cnn2c(-c3cccc(C(F)(F)F)c3)ccnc12 [phenyl[7-[3-(trifluoromethyl)phenyl]pyrazolo[1,5-a]pyrimidin-3-yl]methanone] | 100

Test system: Ethanol Induced Narcosis in Rats
Assay: Effects on the duration of ethanol induced narcosis in rats
Type: in vivo
Conditions: Rattus norvegicus; lowest dose causing significant (p≤0.05) increase in duration of narcosis; oral, 60 min before 3.2 g/kg i.p. ethanol; read-out: MED
Method: The sedative-hypnotic properties of the novel compounds of the instant invention have been established by their effect on the duration of ethanol induced narcosis in rats as a measurement of sedation. Groups of at least 8 rats were administered graded oral doses of the test compounds or vehicle 60 minutes prior to intraperitoneal treatment with 3.2 g/kg ethanol. Rats were then observed continuously for 180 minutes for the incidence and duration of ethanol induced narcosis. […] The duration of narcosis was the total time the rat remained in a supine position. The MED [lowest dose necessary to cause a significant (p≤0.05, two-tailed Student's t test) increase in the duration of ethanol induced narcosis in rats] of representative compounds of this invention are shown in Table IV. Test compounds were dissolved or suspended in a 2% aqueous starch suspension containing 5% polyethyleneglycol 400 and a drop of Tween®80; ethanol (95%) was adjusted to final concentration (V:V) with 0.85% saline. All treatments were administered in a constant volume of 5 ml/kg.

Row | Structure (SMILES) | minimal effective dose [mg/kg]
22 | O=C(c1ccco1)c1cnn2c(-c3cccnc3)ccnc12 [2-Furanyl[7-(3-pyridinyl)pyrazolo[1,5-a]pyrimidin-3-yl]methanone] | 32
23 | O=C(c1ccco1)c1cnn2c(-c3cccc(C(F)(F)F)c3)ccnc12 [2-furanyl[7-[3-(trifluoromethyl)phenyl]pyrazolo[1,5-a]pyrimidin-3-yl]methanone] | 32
24 | O=C(c1ccc(F)cc1)c1cnn2c(-c3ccncc3)ccnc12 [(4-Fluorophenyl)[7-(4-pyridinyl)pyrazolo[1,5-a]pyrimidin-3-yl]methanone] | 6
25 | O=C(c1ccccc1)c1cnn2c(-c3cccnc3)ccnc12 [Phenyl[7-(3-pyridinyl)pyrazolo[1,5-a]pyrimidin-3-yl]methanone] | 16
26 | O=C(c1ccccc1Cl)c1cnn2c(-c3cccnc3)ccnc12 [(2-chlorophenyl)[7-(3-pyridinyl)pyrazolo[1,5-a]pyrimidin-3-yl]methanone] | 4
27 | O=C(c1ccccc1)c1cnn2c(-c3ccncc3)ccnc12 [phenyl[7-(4-pyridinyl)pyrazolo[1,5-a]pyrimidin-3-yl]methanone] | 8

Test system: Brain-Specific Receptors of Rats
Assay: Inhibition of the binding of 3H-benzodiazepine to brain-specific receptors of rats
Set-up: species or system rat (Wistar)
Conditions: 3H-diazepam 1.5 nM or 3H-flunitrazepam 1.0 nM; rat cortex P2 fraction; test concentration not given

Row | Structure (SMILES) | % Inhibition [%]
28 | O=C(c1ccco1)c1cnn2c(-c3cccnc3)ccnc12 [2-Furanyl[7-(3-pyridinyl)pyrazolo[1,5-a]pyrimidin-3-yl]methanone] | 72
29 | Cc1ccc(C(=O)c2cnn3c(-c4cccnc4)ccnc23)cc1 [(4-Methylphenyl)[7-(3-pyridinyl)pyrazolo[1,5-a]pyrimidin-3-yl]methanone] | 56
30 | O=C(c1ccco1)c1cnn2c(-c3cccc(C(F)(F)F)c3)ccnc12 [2-furanyl[7-[3-(trifluoromethyl)phenyl]pyrazolo[1,5-a]pyrimidin-3-yl]methanone] | 98
31 | O=C(c1ccccn1)c1cnn2c(-c3cccc(C(F)(F)F)c3)ccnc12 [2-pyridinyl[7-[3-(trifluoromethyl)phenyl]pyrazolo[1,5-a]pyrimidin-3-yl]methanone] | 93
32 | O=C(c1ccccc1)c1cnn2c(-c3cccnc3)ccnc12 [Phenyl[7-(3-pyridinyl)pyrazolo[1,5-a]pyrimidin-3-yl]methanone] | 45
33 | O=C(c1ccccc1Cl)c1cnn2c(-c3cccnc3)ccnc12 [(2-chlorophenyl)[7-(3-pyridinyl)pyrazolo[1,5-a]pyrimidin-3-yl]methanone] | 24
34 | O=C(c1ccccn1)c1cnn2c(-c3ccncc3)ccnc12 [2-pyridinyl[7-(4-pyridinyl)pyrazolo[1,5-a]pyrimidin-3-yl]methanone] | 29
35 | O=C(c1ccc(F)cc1)c1cnn2c(-c3cccc(C(F)(F)F)c3)ccnc12 [(4-fluorophenyl)[7-[3-(trifluoromethyl)phenyl]pyrazolo[1,5-a]pyrimidin-3-yl]methanone] | 50
36 | O=C(c1ccoc1)c1cnn2c(-c3cccnc3)ccnc12 [3-furanyl[7-(3-pyridinyl)pyrazolo[1,5-a]pyrimidin-3-yl]methanone] | 77
37 | O=C(c1ccccc1)c1cnn2c(-c3cccc(C(F)(F)F)c3)ccnc12 [phenyl[7-[3-(trifluoromethyl)phenyl]pyrazolo[1,5-a]pyrimidin-3-yl]methanone] | 93

Test system: Nonconditioned Passive Avoidance in Rats
Assay: Nonconditioned passive avoidance (conflict) test in rats
Type: in vivo, rat (Wistar)
Set-up: key: Active: considered active if the number of shocks received by the test group is significantly higher than the control group by the Mann-Witney U test
Conditions: dose 12.5 mg/kg, oral or i.p.
Method: Another test which has been used to assess anti-anxiety effects is a nonconditioned passive avoidance procedure described by [J. R. Vogel, B. Beer and D. E. Clody, "A Simple and Reliable Conflict Procedure for Testing Anti-Anxiety Agents", Psychopharmacologia, 21, 1-7 (1971)]. A conflict situation is induced in rats by a modification of this method.
Groups of 6 naive, Wistar strain rats, weighing 200-240 g each were deprived of water for 48 hours and food for 24 hours. The test compounds were administered in single or graded, oral or intraperitoneal doses, suspended in a 2% starch vehicle containing 0.5% v/v polyethylene glycol and one drop of polysorbate 80. Control animals received the vehicle alone. At 30 to 60 minutes each rat was placed in an individual plexiglass chamber. Water was available ad libitum from a tap located in the rear of the chamber. A 0.7 milliampere DC shocking current was established between the stainless steel grid floor and the tap. After 20 licks of non-shocked drinking, a shock was delivered for 2 seconds and then further shocks were delivered on a ratio of one shock for 2 seconds for every 20 licks. This was continued for a total of 3 minutes. The number of shocks taken by each rat during the 3 minute interval was recorded and compared to a control group. […]

Row | Structure (SMILES) | Result (nonconditioned passive avoidance)
38 | COc1ccc(C(=O)c2cnn3c(-c4cccnc4)ccnc23)cc1 [(4-Methoxyphenyl)[7-(3-pyridinyl)pyrazolo[1,5-a]pyrimidin-3-yl]methanone] | Active

Same assay, conditions: dose 25.0 mg/kg, oral or i.p.

Row | Structure (SMILES) | Result (nonconditioned passive avoidance)
39 | O=C(c1ccco1)c1cnn2c(-c3cccnc3)ccnc12 [2-Furanyl[7-(3-pyridinyl)pyrazolo[1,5-a]pyrimidin-3-yl]methanone] | Active
40 | Cc1ccc(C(=O)c2cnn3c(-c4cccnc4)ccnc23)cc1 [(4-Methylphenyl)[7-(3-pyridinyl)pyrazolo[1,5-a]pyrimidin-3-yl]methanone] | Active
41 | O=C(c1ccco1)c1cnn2c(-c3cccc(C(F)(F)F)c3)ccnc12 [2-furanyl[7-[3-(trifluoromethyl)phenyl]pyrazolo[1,5-a]pyrimidin-3-yl]methanone] | Active
42 | O=C(c1ccccn1)c1cnn2c(-c3cccc(C(F)(F)F)c3)ccnc12 [2-pyridinyl[7-[3-(trifluoromethyl)phenyl]pyrazolo[1,5-a]pyrimidin-3-yl]methanone] | Active
43 | O=C(c1ccc(F)cc1)c1cnn2c(-c3ccncc3)ccnc12 [(4-Fluorophenyl)[7-(4-pyridinyl)pyrazolo[1,5-a]pyrimidin-3-yl]methanone] | Active
44 | O=C(c1ccccc1)c1cnn2c(-c3cccnc3)ccnc12 [Phenyl[7-(3-pyridinyl)pyrazolo[1,5-a]pyrimidin-3-yl]methanone] | Active
45 | O=C(c1ccccc1Cl)c1cnn2c(-c3cccnc3)ccnc12 [(2-chlorophenyl)[7-(3-pyridinyl)pyrazolo[1,5-a]pyrimidin-3-yl]methanone] | Active
46 | O=C(c1ccccn1)c1cnn2c(-c3ccncc3)ccnc12 [2-pyridinyl[7-(4-pyridinyl)pyrazolo[1,5-a]pyrimidin-3-yl]methanone] | Active
47 | O=C(c1ccccc1)c1cnn2c(-c3ccncc3)ccnc12 [phenyl[7-(4-pyridinyl)pyrazolo[1,5-a]pyrimidin-3-yl]methanone] | Active
48 | O=C(c1ccc(F)cc1)c1cnn2c(-c3cccc(C(F)(F)F)c3)ccnc12 [(4-fluorophenyl)[7-[3-(trifluoromethyl)phenyl]pyrazolo[1,5-a]pyrimidin-3-yl]methanone] | Active
49 | O=C(c1ccoc1)c1cnn2c(-c3cccnc3)ccnc12 [3-furanyl[7-(3-pyridinyl)pyrazolo[1,5-a]pyrimidin-3-yl]methanone] | Active
50 | O=C(c1ccccc1)c1cnn2c(-c3cccc(C(F)(F)F)c3)ccnc12 [phenyl[7-[3-(trifluoromethyl)phenyl]pyrazolo[1,5-a]pyrimidin-3-yl]methanone] | Active

Test system: Locomotor Activity in Rats
Assay: Effects on locomotor activity in rats
Type: in vivo
Conditions: Rattus norvegicus, 1 h; dose causing 50% decrease in mean activity counts vs vehicle; oral, 60 min; read-out: MDD50
Method: Groups of 6 rats were treated orally with vehicle (5 ml/kg) or graded doses of the test compounds. Sixty minutes later, individual rats were placed in Actophotometers and locomotor activity was measured for 5 minutes after a brief (30 sec.) habituation period. Motor Activity Counts (number of crossings of the photo cells) were recorded for each rat, and mean activity counts were calculated for each treatment group. The dose causing a 50% decrease in mean activity counts compared with the vehicle group (MDD50) was calculated from a linear regression equation.

Row | Structure (SMILES) | ED50 [mg/kg]
51 | O=C(c1ccco1)c1cnn2c(-c3cccnc3)ccnc12 [2-Furanyl[7-(3-pyridinyl)pyrazolo[1,5-a]pyrimidin-3-yl]methanone] | 500
52 | COc1ccc(C(=O)c2cnn3c(-c4cccnc4)ccnc23)cc1 [(4-Methoxyphenyl)[7-(3-pyridinyl)pyrazolo[1,5-a]pyrimidin-3-yl]methanone] | 10.5
53 | Cc1ccc(C(=O)c2cnn3c(-c4cccnc4)ccnc23)cc1 [(4-Methylphenyl)[7-(3-pyridinyl)pyrazolo[1,5-a]pyrimidin-3-yl]methanone] | 13.2
54 | O=C(c1ccccn1)c1cnn2c(-c3cccc(C(F)(F)F)c3)ccnc12 [2-pyridinyl[7-[3-(trifluoromethyl)phenyl]pyrazolo[1,5-a]pyrimidin-3-yl]methanone] | 7
55 | O=C(c1ccc(F)cc1)c1cnn2c(-c3ccncc3)ccnc12 [(4-Fluorophenyl)[7-(4-pyridinyl)pyrazolo[1,5-a]pyrimidin-3-yl]methanone] | 48.9
56 | O=C(c1ccccc1)c1cnn2c(-c3cccnc3)ccnc12 [Phenyl[7-(3-pyridinyl)pyrazolo[1,5-a]pyrimidin-3-yl]methanone] | 51.4
57 | O=C(c1ccccn1)c1cnn2c(-c3ccncc3)ccnc12 [2-pyridinyl[7-(4-pyridinyl)pyrazolo[1,5-a]pyrimidin-3-yl]methanone] | 101
58 | O=C(c1ccccc1)c1cnn2c(-c3ccncc3)ccnc12 [phenyl[7-(4-pyridinyl)pyrazolo[1,5-a]pyrimidin-3-yl]methanone] | 21.2
59 | O=C(c1ccccc1)c1cnn2c(-c3cccc(C(F)(F)F)c3)ccnc12 [phenyl[7-[3-(trifluoromethyl)phenyl]pyrazolo[1,5-a]pyrimidin-3-yl]methanone] | 5.5
